The source made the active and inactive calls. The calls are words filed in the database; no cut-off is given here.
What was measured:
MCF7 = experiment: Cytotoxicity against human MCF7 cells incubated for 24 hrs by CCK-8 reagent based spectrophotometric analysis; type: functional, cell-based; details: MCF7, 24 h
MDA-MB-231 = experiment: Cytotoxicity against human MDA-MB-231 cells incubated for 24 hrs by CCK-8 reagent based spectrophotometric analysis; type: functional, cell-based; details: MDA-MB-231, 24 h
U2OS = experiment: Cytotoxicity against human U2OS cells incubated for 24 hrs by CCK-8 reagent based spectrophotometric analysis; type: functional, cell-based
[1] = Cytotoxicity against human MCF-10A cells incubated for 24 hrs by CCK-8 reagent based spectrophotometric analysis; type: toxicity, cell-based
Quadruplex DNA = experiment: Stabilization of G-quadruplex 5-FAM-telomeric24 DNA-TAMRA-3 (unknown origin) assessed as change in melting temperature incubated for 2 hrs by FRET assay; type: nucleic-acid assay
4T1 [2] = experiment: Cytotoxicity against mouse 4T1 cells incubated for 24 hrs by CCK-8 reagent based spectrophotometric analysis; type: functional, cell-based; details: 4T1, 24 h
4T1 [3] = experiment: Antitumor immunity against mouse 4T1 cells implanted in BALB/c mouse assessed as increase in proportion of CD8+ T cells in spleen at 2 mg/kg,ip every other day for 14 days by flow cytometry; type: functional, organism-based; details: time 14.0 day
4T1 [4] = experiment: Antitumor immunity against mouse 4T1 cells implanted in BALB/c mouse assessed as increase in serum TNF-alpha level at 2 mg/kg,ip every other day for 14 days by ELISA; type: functional, organism-based; details: time 14.0 day
4T1 [5] = experiment: Antitumor immunity against mouse 4T1 cells implanted in BALB/c mouse assessed as increase in proportion of CD8+ T cells in tumor at 2 mg/kg,ip every other day for 14 days by flow cytometry; type: functional, organism-based; details: time 14.0 day
4T1 [6] = experiment: Antitumor activity against mouse 4T1 cells implanted in BALB/c mouse assessed as damage in tumor tissue at 2 mg/kg,ip every other day for 14 days by hematoxylin and eosin staining analysis; type: functional, organism-based; details: time 14.0 day
4T1 [7] = experiment: Antitumor immunity against mouse 4T1 cells implanted in BALB/c mouse assessed as increase in proportion of CD8+ T cells in tumor at 2 mg/kg,ip every other day for 14 days by immunohistochemistry staining based analysis; type: functional, organism-based; details: time 14.0 day
[8] = Toxicity in BALB/c mouse implanted with mouse 4T1 cells assessed as decrease in liver weight at 2 mg/kg,ip every other day for 14 days; type: organism-based; details: in vivo, 336 h, time 14 day
[9] = Toxicity in BALB/c mouse implanted with mouse 4T1 cells assessed as decrease in lung weight at 2 mg/kg,ip every other day for 14 days; type: organism-based; details: in vivo, 336 h, time 14 day
4T1 [10] = experiment: Antitumor immunity against mouse 4T1 cells implanted in BALB/c mouse assessed as increase in proportion of CD4+ T cells in tumor at 2 mg/kg,ip every other day for 14 days by flow cytometry; type: functional, organism-based; details: time 14.0 day
[11] = Toxicity in BALB/c mouse implanted with mouse 4T1 cells assessed as decrease in heart weight at 2 mg/kg,ip every other day for 14 days; type: organism-based; details: in vivo, 336 h, time 14 day
[12] = Toxicity in BALB/c mouse implanted with mouse 4T1 cells assessed as decrease in kidney weight at 2 mg/kg,ip every other day for 14 days; type: organism-based; details: in vivo, 336 h, time 14 day
4T1 [13] = experiment: Antitumor immunity against mouse 4T1 cells implanted in BALB/c mouse assessed as increase in proportion of CD4+ T cells in tumor at 2 mg/kg,ip every other day for 14 days by immunohistochemistry staining based analysis; type: functional, organism-based; details: time 14.0 day
4T1 [14] = experiment: Antitumor immunity against mouse 4T1 cells implanted in BALB/c mouse assessed as increase in proportion of CD4+ T cells in spleen at 2 mg/kg,ip every other day for 14 days by flow cytometry; type: functional, organism-based; details: time 14.0 day
[15] = Toxicity in BALB/c mouse implanted with mouse 4T1 cells assessed as decrease in body weight at 2 mg/kg,ip every other day for 14 days; type: organism-based; details: in vivo, 336 h, time 14 day
[16] = Toxicity in BALB/c mouse implanted with mouse 4T1 cells assessed as decrease in spleen weight at 2 mg/kg,ip every other day for 14 days; type: organism-based; details: in vivo, 336 h, time 14 day
BMDC = experiment: Induction of immunogenic cell death in BALB/c mouse BMDC cells co-cultured with mouse 4T1 cells assessed as increase in CD11c+ CD80+ CD86 cells maturation at 5 uM incubated for 24 hrs by flow cytometry (reference value: 69.4 %); type: functional
4T1 [17] = experiment: Antitumor activity against mouse 4T1 cells implanted in BALB/c mouse assessed as reduction in tumor weight at 2 mg/kg,ip every other day for 14 days; type: functional, organism-based; details: time 14.0 day
4T1 [18] = experiment: Antitumor immunity against mouse 4T1 cells implanted in BALB/c mouse assessed as increase in serum IL-6 level at 2 mg/kg,ip every other day for 14 days by ELISA; type: functional, organism-based; details: time 14.0 day

Row | SMILES | IC50 (MCF7) [µM] | IC50 (MDA-MB-231) [µM] | IC50 (U2OS) [µM] | IC50 at 24 h [1] [µM] | ΔTm (Quadruplex DNA) [°C] | IC50 (4T1 [2]) [µM] | also measured
1 | CN(C)CCN1CCN(c2ccc(-c3nc4ccc(F)cc4nc3-c3ccc(N4CCN(CCN(C)C)CC4)cc3)cc2)CC1 | 6.1 | 2.9 | 3.6 | 2.7 | 8.3 | 2.3 | –
2 | CN(CCO)c1ccc(-c2nc3cc4ccccc4cc3nc2-c2ccc(N(C)CCO)cc2)cc1 | > 40 | 20.9 | > 40 | 11.1 | 0.9 | 36.4 | –
3 | OCCN1CCN(c2ccc(-c3nc4cc5ccccc5cc4nc3-c3ccc(N4CCN(CCO)CC4)cc3)cc2)CC1 | 18.4 | 2.5 | 6.6 | 2.8 | 1.9 | 4.9 | –
4 | CN(C)CCN1CCN(c2ccc(-c3nc4ccc(C(F)(F)F)cc4nc3-c3ccc(N4CCN(CCN(C)C)CC4)cc3)cc2)CC1 | 4.3 | 2 | 3.5 | 1.5 | 6.6 | 1.7 | –
5 | COc1ccc2nc(-c3ccc(N(C)CCO)cc3)c(-c3ccc(N(C)CCO)cc3)nc2c1 | > 40 | > 40 | > 40 | 24.1 | 0.1 | > 40 | –
6 | CN(CCO)c1ccc(-c2nc3ccc(C(F)(F)F)cc3nc2-c2ccc(N(C)CCO)cc2)cc1 | > 40 | > 40 | 19.3 | 20.5 | 0.5 | > 40 | –
7 | CN(CCO)c1ccc(-c2nc3ccc(F)cc3nc2-c2ccc(N(C)CCO)cc2)cc1 | > 40 | 33.2 | > 40 | 18 | 0.4 | 31.6 | –
8 | COc1ccc2nc(-c3ccc(N(C)CCN(C)C)cc3)c(-c3ccc(N(C)CCN(C)C)cc3)nc2c1 | 5.8 | 6.2 | 8.8 | 13.7 | 6.6 | 9.4 | –
9 | COc1cccc2c1C(=O)c1c(O)c3c(c(O)c1C2=O)C[C@@](O)(C(=O)CO)C[C@@H]3O[C@H]1C[C@H](N)[C@H](O)[C@H](C)O1 [DOXORUBICIN] | – | – | – | – | – | – | Activity (4T1 [3]): Active; Activity (4T1 [4]): Active; Activity (4T1 [5]): Active; Activity (4T1 [6]): Active; Activity (4T1 [7]): Active; Activity [8]: Toxic; Activity [9]: Toxic; Activity (4T1 [10]): Active; Activity [11]: Toxic; Activity [12]: Toxic; Activity (4T1 [13]): Active; Activity (4T1 [14]): Active; Activity [15]: Toxic; Activity [16]: Toxic; Activity (BMDC): 81.5%; Activity (4T1 [17]): Active; Activity (4T1 [18]): Active
10 | CN(C)CCN1CCN(c2ccc(-c3nc4cc5ccccc5cc4nc3-c3ccc(N4CCN(CCN(C)C)CC4)cc3)cc2)CC1 | 8.4 | 5.2 | 13.3 | 3.7 | 5.7 | 4 | –
11 | OCCN1CCN(c2ccc(-c3nc4ccc(C(F)(F)F)cc4nc3-c3ccc(N4CCN(CCO)CC4)cc3)cc2)CC1 | 6.3 | 2 | 3.7 | 4.1 | 1.5 | 4.3 | –
12 | CN(C)CCN(C)c1ccc(-c2nc3ccc(F)cc3nc2-c2ccc(N(C)CCN(C)C)cc2)cc1 | 4.2 | 3.1 | 3.1 | 8.8 | 6 | 5.6 | –
13 | COc1ccc2nc(-c3ccc(N4CCN(CCO)CC4)cc3)c(-c3ccc(N4CCN(CCO)CC4)cc3)nc2c1 | 15.9 | 1.3 | 8 | 6.7 | 4.1 | 22.1 | –
14 | OCCN1CCN(c2ccc(-c3nc4ccc(F)cc4nc3-c3ccc(N4CCN(CCO)CC4)cc3)cc2)CC1 | 10.5 | 1.8 | 4.5 | 6.3 | 3.2 | 12.9 | –
15 | CN(C)CCN(C)c1ccc(-c2nc3cc4ccccc4cc3nc2-c2ccc(N(C)CCN(C)C)cc2)cc1 | 1.9 | 1.4 | 1.5 | 1.3 | 7.9 | 2.9 | –
16 | COc1ccc2nc(-c3ccc(N4CCN(CCN(C)C)CC4)cc3)c(-c3ccc(N4CCN(CCN(C)C)CC4)cc3)nc2c1 | 9.5 | 2.3 | 6.9 | 3.4 | 5.6 | 5.3 | –
